Data: patent EP4796538A1, “NOVEL QUINOXALINE COMPOUNDS, MANUFACTURING METHOD THEREOF, AND USES THEREOF” (Gachon University of Industry-Academic Cooperation …, priority 2023, dated 2025)
Where two headings read alike, the source gives them in different places.

Experiments:
RET (G810S/M918T) = biological target: T1, RET (G810S/M918T) (Homo sapiens, UniProt P07949, G810S/M918T); test: Kinase panel inhibition, radiolabeled [γ-33P] ATP (Reaction Biology Corp); format: biochemical; conditions: ATP 1 µM; for remaining activity at 10 µM: compound at 10 uM; for remaining activity at 30 µM: compound at 30uM
T1 construct: purchased Reaction Biology Corp
Procedure: (§1) Using radiolabeled ATP ([γ-33P] ATP), the degree to which the substrate was replaced by a 33P-phosphorylated substrate was measured, and changes in kinase activity were determined from the measurement of the radiolabeled phosphorylated substrate.

BaF3-RET(V804M) = test: Cell proliferation inhibition (GI50), Cell Counting Kit-8, Ba/F3 cell line; format: cell-based, rodent; conditions: Mus musculus, read-out: GI50 of BaF3-RET(V804M)
Procedure: To evaluate the inhibitory activity of the compounds represented by Formula I or Formula IV according to the present invention against RET mutation-driven cell growth in the Ba/F3 cell line and against cell growth in the non-small cell lung cancer cell line A-549, the following experiment was performed.
Each cell line was seeded in a 96-well plate at 1×10^4 cells/90 µL/well, and 10 µL/well of culture medium containing each example and intermediate compound or DMSO control at 9 concentrations (1 nM to 100 µM) prepared by 3-fold serial dilutions was added to achieve a final concentration of 0 to 100 µM, followed by incubation for 72 hours in a 37°C, 5% CO2 incubator. After 72 hours of incubation, the compound-treated plates were removed, and Cell Counting Kit-8 solution was added at 10 µL/well and mixed well. The plates were then incubated for 2 hours in a CO2 incubator at 37°C, and the absorbance was measured at 450 nm using a microplate reader.
In addition, the data were expressed as a percentage relative to vehicle-treated cells, and GI50 values were calculated using GraphPad Prism 8.0 (GraphPad Software Inc., San Diego), and the results are shown in Table 8 below. As a control compound, ponatinib, a known RET inhibitor, was treated to calculate the GI50 values.

RET-CCDC6 (PTC1) = biological target: T2, RET-CCDC6 (PTC1) (Homo sapiens, UniProt P07949); test: Kinase panel inhibition, radiolabeled [γ-33P] ATP (Reaction Biology Corp); format: biochemical; conditions: compound at 10 uM, ATP 1 µM
T2 construct: purchased Reaction Biology Corp
Procedure: as §1

RET(G810R) = biological target: T3, RET(G810R) (Homo sapiens, UniProt P07949, G810R); test: as above; format: biochemical; conditions: for remaining activity at 0.1 µM: compound at 0.1 uM; for remaining activity at 0.1 µM / remaining activity at 1 µM: ATP 10 µM, read-out: % Enzyme Activity (relative to DMSO controls) G810R; for remaining activity at 1 µM: compound at 1 uM
T3 construct: purchased Reaction Biology Corp
Procedure: as §1

A-549 = test: Cell proliferation inhibition, Cell Counting Kit-8, non-small cell lung cancer cell line; format: cell-based; conditions: A-549 cell line; 72 hours incubation; test concentration not given
RET(V804M)-KIF5B = biological target: T4, RET(V804M)-KIF5B (Homo sapiens, UniProt P07949, V804M); test: Kinase panel inhibition, radiolabeled [γ-33P] ATP (Reaction Biology Corp); format: biochemical; conditions: for remaining activity at 0.1 µM: compound at 0.1 uM, ATP 10 µM, read-out: % Enzyme Activity (relative to DMSO controls) RET (V804M )-KIF5B
T4 sequence (P07949 713-1114 V804M): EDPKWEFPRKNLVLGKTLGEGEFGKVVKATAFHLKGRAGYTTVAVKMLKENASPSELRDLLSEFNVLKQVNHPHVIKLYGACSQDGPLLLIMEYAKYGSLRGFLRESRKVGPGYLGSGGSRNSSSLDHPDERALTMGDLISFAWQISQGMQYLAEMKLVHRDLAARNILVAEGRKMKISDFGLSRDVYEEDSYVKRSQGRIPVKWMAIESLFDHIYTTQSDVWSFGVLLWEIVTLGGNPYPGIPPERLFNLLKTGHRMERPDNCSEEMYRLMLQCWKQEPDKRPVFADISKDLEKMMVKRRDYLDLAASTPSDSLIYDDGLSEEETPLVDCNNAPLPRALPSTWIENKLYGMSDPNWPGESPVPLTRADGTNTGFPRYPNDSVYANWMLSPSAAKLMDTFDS
T4 sequence (P33176 2-575 partner): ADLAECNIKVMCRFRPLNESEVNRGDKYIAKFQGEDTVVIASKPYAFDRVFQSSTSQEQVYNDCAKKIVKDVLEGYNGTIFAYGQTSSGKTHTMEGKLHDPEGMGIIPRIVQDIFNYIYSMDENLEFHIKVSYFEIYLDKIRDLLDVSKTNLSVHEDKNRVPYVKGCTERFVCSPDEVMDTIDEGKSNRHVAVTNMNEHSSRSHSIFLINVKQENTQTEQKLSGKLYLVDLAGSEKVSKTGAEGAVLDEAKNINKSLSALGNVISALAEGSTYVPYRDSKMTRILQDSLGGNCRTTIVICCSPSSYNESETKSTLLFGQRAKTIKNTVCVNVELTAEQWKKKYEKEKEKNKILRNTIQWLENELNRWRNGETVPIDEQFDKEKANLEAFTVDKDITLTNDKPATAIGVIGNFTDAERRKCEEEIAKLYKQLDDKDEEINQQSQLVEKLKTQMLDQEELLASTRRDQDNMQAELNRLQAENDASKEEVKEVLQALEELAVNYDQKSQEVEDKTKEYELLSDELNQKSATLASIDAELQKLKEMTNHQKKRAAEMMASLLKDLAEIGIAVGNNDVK
Procedure: as §1

RET(V804M) = biological target: T5, RET(V804M) (Homo sapiens, UniProt P07949, V804M); test: as above; format: biochemical; conditions: for remaining activity at 0.1 µM: compound at 0.1 uM; for remaining activity at 0.1 µM / remaining activity at 1 µM: ATP 10 µM, read-out: % Enzyme Activity (relative to DMSO controls) V804M; for remaining activity at 1 µM: compound at 1 uM
T5 construct: purchased Reaction Biology Corp
Procedure: as §1

RET = biological target: T6, RET (Homo sapiens, UniProt P07949); test: as above; format: biochemical; conditions: compound at 1 uM; ATP 10 µM; read-out: % Enzyme Activity (relative to DMSO controls) RET
T6 construct: purchased Reaction Biology Corp
Procedure: as §1

BaF3 KIF5B-RET (G810R) = test: Cell proliferation inhibition, Cell Counting Kit-8, Ba/F3 cell line; format: cell-based, rodent; conditions: Mus musculus, 72 hours incubation, read-out: Cell Viability of BaF3 Cell lines (IC50 in uM) KIF5B-RET (G810R)
Procedure: As a control compound, selpercatinib, a known RET inhibitor, was treated to calculate the IC50 values.

[1] = Data 1, read-out: % Enzyme Activity (relative to DMSO controls) RET (G810S/M918T) Data 1
[2] = Data 2, read-out: % Enzyme Activity (relative to DMSO controls) RET (G810S/M918T) Data 2
[3] = BaF3, 72 hours incubation, Cell Counting Kit-8
[4] = Data 1, read-out: % Enzyme Activity (relative to DMSO controls) RET-CCDC6 (PTC1) Data 1
[5] = Data 2, read-out: % Enzyme Activity (relative to DMSO controls) RET-CCDC6 (PTC1) Data 2

T2 sequence (P07949 whole entry, looked up): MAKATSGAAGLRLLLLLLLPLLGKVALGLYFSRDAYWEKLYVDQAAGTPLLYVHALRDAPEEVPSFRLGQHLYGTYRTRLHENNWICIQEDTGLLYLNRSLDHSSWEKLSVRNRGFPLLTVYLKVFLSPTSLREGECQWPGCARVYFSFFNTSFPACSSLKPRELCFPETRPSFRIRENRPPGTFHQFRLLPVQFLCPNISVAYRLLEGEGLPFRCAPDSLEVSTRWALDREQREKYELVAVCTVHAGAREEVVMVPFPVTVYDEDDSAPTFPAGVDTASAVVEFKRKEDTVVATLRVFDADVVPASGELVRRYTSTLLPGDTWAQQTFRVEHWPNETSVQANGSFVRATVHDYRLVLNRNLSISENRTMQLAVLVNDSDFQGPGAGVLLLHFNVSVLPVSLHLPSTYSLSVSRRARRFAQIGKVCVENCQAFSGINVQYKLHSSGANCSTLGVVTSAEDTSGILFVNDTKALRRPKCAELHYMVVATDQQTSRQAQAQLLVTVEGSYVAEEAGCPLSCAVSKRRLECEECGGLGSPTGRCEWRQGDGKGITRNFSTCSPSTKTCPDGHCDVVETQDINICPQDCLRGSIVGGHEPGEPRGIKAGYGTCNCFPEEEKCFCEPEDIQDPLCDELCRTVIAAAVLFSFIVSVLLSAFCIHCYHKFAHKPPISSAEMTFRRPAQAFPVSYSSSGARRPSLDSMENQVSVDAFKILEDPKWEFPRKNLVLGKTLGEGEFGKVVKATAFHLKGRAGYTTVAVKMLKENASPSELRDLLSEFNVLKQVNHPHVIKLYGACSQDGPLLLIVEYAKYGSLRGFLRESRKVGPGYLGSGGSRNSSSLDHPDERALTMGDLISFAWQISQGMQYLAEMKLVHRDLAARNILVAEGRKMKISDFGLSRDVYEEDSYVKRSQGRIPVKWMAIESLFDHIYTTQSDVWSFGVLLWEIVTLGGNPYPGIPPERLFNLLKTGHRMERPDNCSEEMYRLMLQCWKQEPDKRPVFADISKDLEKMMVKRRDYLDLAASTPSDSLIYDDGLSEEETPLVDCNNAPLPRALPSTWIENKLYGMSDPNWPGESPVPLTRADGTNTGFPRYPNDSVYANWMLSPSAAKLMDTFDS
T1 sequence (P07949 29-1114 G810S/M918T): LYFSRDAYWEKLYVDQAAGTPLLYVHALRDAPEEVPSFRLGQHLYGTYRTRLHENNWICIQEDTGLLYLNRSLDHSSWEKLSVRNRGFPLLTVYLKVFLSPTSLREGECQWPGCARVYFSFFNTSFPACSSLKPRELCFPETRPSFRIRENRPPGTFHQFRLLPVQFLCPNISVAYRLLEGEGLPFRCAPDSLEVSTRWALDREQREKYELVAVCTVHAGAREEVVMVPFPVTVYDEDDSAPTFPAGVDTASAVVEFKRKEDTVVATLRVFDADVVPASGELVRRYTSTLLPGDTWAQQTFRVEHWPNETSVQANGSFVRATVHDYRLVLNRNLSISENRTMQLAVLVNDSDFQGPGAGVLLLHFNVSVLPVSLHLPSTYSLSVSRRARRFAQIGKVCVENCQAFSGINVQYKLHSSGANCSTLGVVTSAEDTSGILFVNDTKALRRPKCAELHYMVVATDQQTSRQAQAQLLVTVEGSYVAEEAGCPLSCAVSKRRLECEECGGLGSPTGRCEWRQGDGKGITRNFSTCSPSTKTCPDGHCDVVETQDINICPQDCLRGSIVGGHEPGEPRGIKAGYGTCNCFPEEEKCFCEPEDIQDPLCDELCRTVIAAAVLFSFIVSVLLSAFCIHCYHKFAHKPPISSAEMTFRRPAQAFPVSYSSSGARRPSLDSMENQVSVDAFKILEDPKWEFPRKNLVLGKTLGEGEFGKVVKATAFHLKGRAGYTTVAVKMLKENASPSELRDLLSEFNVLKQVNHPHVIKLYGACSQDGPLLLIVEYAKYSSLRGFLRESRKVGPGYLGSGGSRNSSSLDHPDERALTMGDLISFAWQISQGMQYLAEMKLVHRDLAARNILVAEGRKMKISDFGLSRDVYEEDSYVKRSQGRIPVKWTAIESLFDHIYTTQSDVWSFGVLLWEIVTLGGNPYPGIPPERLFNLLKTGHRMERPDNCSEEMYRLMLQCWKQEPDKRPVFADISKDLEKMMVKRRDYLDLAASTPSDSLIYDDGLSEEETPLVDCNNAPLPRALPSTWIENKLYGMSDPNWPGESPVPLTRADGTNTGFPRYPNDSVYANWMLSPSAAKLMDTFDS
T6 sequence (P07949 29-1114): as the sequence (P07949 29-1114 G810S/M918T) above, with S782G, T890M counted along it
T3 sequence (P07949 29-1114 G810R): as the sequence (P07949 29-1114 G810S/M918T) above, with S782R, T890M counted along it
T5 sequence (P07949 29-1114 V804M): as the sequence (P07949 29-1114 G810S/M918T) above, with V776M, S782G, T890M counted along it

Row | SMILES | remaining activity at 10 µM (RET (G810S/M918T); [1]) [%] | remaining activity at 10 µM (RET (G810S/M918T); [2]) [%] | GI50 (BaF3-RET(V804M); [3]) [nM] | remaining activity at 10 µM (RET-CCDC6 (PTC1); [4]) [%] | remaining activity at 10 µM (RET-CCDC6 (PTC1); [5]) [%] | remaining activity at 0.1 µM (RET(G810R)) [%] | Cell Proliferation (% of control) (A-549) [%] | remaining activity at 0.1 µM (RET(V804M)-KIF5B) [%] | remaining activity at 0.1 µM (RET(V804M)) [%] | IC50 (RET(V804M)-KIF5B) [nM] | IC50 (RET(G810R); read-out: Enzymatic inhibitory activity (IC50) nM G810R) [nM] | IC50 (RET(V804M); read-out: Enzymatic inhibitory activity (IC50) nM V804M) [nM] | remaining activity at 30 µM (RET (G810S/M918T); [1]) [%] | remaining activity at 30 µM (RET (G810S/M918T); [2]) [%] | remaining activity at 1 µM (RET) [%] | remaining activity at 1 µM (RET(G810R)) [%] | remaining activity at 1 µM (RET(V804M)) [%] | IC50 (BaF3 KIF5B-RET (G810R)) [µM] | GI50 (BaF3-RET(V804M); BaF3, 72 h) [nM]
1 | CNc1cc(-c2ccc(N3CC(Oc4cccc(F)c4)C3)nc2)c2nccnc2c1 [Example 2, 8-(6-(3-(3-fluorophenoxy)azetidin-1-yl)pyridin-3-yl)-N-methylquinoxalin-6-amine] | 0.05 | -0.43 | 943 | 1.38 | 0.23 | 77.3 | 18.59 |  |  |  |  |  |  |  |  |  |  |  | 
2 | O=C(Nc1cc(-c2ccc(N3CC(Oc4cccc(F)c4)C3)nc2)c2nccnc2c1)c1ccco1 [Example 8, N-(8-(6-(3-(3-fluorophenoxy)azetidin-1-yl)pyridin-3-yl)quinoxalin-6-yl)furan-2-carboxamide] | 13.6 | 12.9 |  | 2.53 | 1.8 | 96.7 | 78.35 | 65.1 | 46 |  |  |  |  |  |  |  |  |  | 
3 | Nc1cc(-c2ccc(N3CC[C@H](NC(=O)c4ccccc4F)C3)nc2)c2nccnc2c1 [Example 10, (S)-N-(1-(5-(7-aminoquinoxalin-5-yl)pyridin-2-yl)pyrrolidin-3-yl)-2-fluorobenzamide] | -0.09 | -0.6 |  | 1.55 | 0.99 | 59.9 | 32.59 | 5.5 | 2.27 | 2.26 | 44.7 | 0.5 |  |  |  |  |  |  | 
4 | CNc1cc(-c2ccc(N3CC[C@H](NC(=O)c4ccccc4F)C3)nc2)c2nccnc2c1 [Example 11, (S)-2-fluoro-N-(1-(5-(7-(methylamino)quinoxalin-5-yl)pyridin-2-yl)pyrrolidin-3-yl)benzamide] | -0.84 | -0.85 | 2120 | 1.36 | 1.07 | 56 | 20.80 |  |  |  |  |  |  |  |  |  |  |  | 
5 | O=[N+]([O-])c1cc(-c2ccc(N3CC(Oc4cccc(F)c4)C3)nc2)c2nccnc2c1 [Example 27, 5-(6-(3-(3-fluorophenoxy)azetidin-1-yl)pyridin-3-yl)-7-nitroquinoxaline] |  |  |  |  |  |  | 94.57 |  |  |  |  |  | 59.9 | 58.1 | 67.2 | 101 | 62.8 | > 10 | 
6 | CCN(CC)c1cc(-c2ccc(N3CC(Oc4cccc(F)c4)C3)nc2)c2nccnc2c1 [Example 28, N,N-diethyl-8-(6-(3-(3-fluorophenoxy)azetidin-1-yl)pyridin-3-yl)quinoxalin-6-amine] |  |  |  |  |  |  | 94.81 |  |  |  |  |  | 4.19 | 4.35 | 28.3 | 105 | 16.5 | > 10 | 
7 | CCNc1cc(C#CCN2CCOCC2)c2nccnc2c1 [Example 31, N-ethyl-8-(3-morpholinoprop-1-yn-1-yl)quinoxalin-6-amine] | 61.7 | 61.2 |  | 14.8 | 15.4 | 98.5 | 51.88 | 109 | 105 |  |  |  |  |  |  |  |  |  | 
8 | CCNc1cc(Nc2cc(C)[nH]n2)c2nccnc2c1 [Example 32, N7-ethyl-N5-(5-methyl-1H-pyrazol-3-yl)quinoxaline-5,7-diamine] | 41.9 | 40.6 |  | 5.39 | 4.58 | 96.6 | 92.91 | 85.9 | 88.7 |  |  |  |  |  |  |  |  |  | 
9 | CCNc1cc(Br)c2nccnc2c1 [Intermediate Compound 18, 8-Bromo-N-ethylquinoxalin-6-amine] |  |  |  |  |  |  |  |  |  |  |  |  | 10.3 | 9.57 | 71.1 | 104 | 68.3 | 0.73 | 
10 | Cc1ccc(C(=O)Nc2ccc(CN3CCN(C)CC3)c(C(F)(F)F)c2)cc1C#Cc1cnc2cccnn12 [Ponatinib, ponatinib, reference compound] |  |  |  |  |  |  | -1.99 |  |  |  |  |  |  |  |  |  |  |  | 115
